Laboratory results from publication PMC11637191, “The pH-dependence of efflux ratios determined with bidirectional transport assays across cellular monolayers” (International Journal of Pharmaceutics: X, 2024).
“And” between values parts separate entries of the source, which are not always exact repeats. Equal entries are not always repeated. Where two headings read alike, the source gives them in different places.

How the values were obtained:
[1] = Measurement of paracellular transport (Ppara) in MDCK-MDR1 cells with and without P-gp inhibitors; format: in vitro ADME, canine; settings: dog
Source text: (§1) In initial fits, we used experimentally obtained values for Ppara , determined by measuring the Papp of the relevant compound at a pH value where paracellular transport was expected to dominate. Since the compounds in this study are P-gp substrates, elacridar was also used to inhibit P-gp. Under these conditions, the measured Papp is expected to be a measure of Ppara . […]
(§2) X Measurement of paracellular transport […]
(§3) assess its relative contribution to overall flux, it is necessary to quantify paracellular transport in some way. An approximation of paracellular transport can be mathematically calculated as desc ribed in […]
(§4) and cell type can influence and complicate the predictions, leading to uncertainties. H owever, it can also be experimentally measured provided that it can be assured that the P app would be dominated by the contribution of P para . […]
(§5) compounds. In order to ensure paracellular dominance, 2 µM elacridar was used to inhibit potential P-gp facilitated efflux, and the transport buffer was set to a pH that would severely restrict the neutral […]
(§6) Table S13: P app values and measured logP para for basic and acidic marker compounds. P app values are the mean of three timepoints per replicate, for a total of three replicates (n = 3) ± standard […]
(§7) Compound pH Papp, A⟶B logP para Recovery fn
(§8) In light of the uncertainties in predicting P para , it was presumed more apt to measure P para for each compound individually in parallel with the pH dependence experiments. As described in Section 4.3 of the main text, experiments were initially performed for each tested compound with inhibitor and appropriate pH values (similar to those performed for Table S12) in an attempt to ensure the dominance of paracellular transport. These values could then be used as a direct measure for P para for each compound that could be fed to the model for its individual fit. […]
(§9) affecting P para and/or the measurement of it, we measured the P app of more commonly-used markers for paracellular transport with and without inhibitor. The transport of these rather hydrophilic compounds is known to be dominated by the paracellular route. Furthermore, for our MDCK- MDR1 […]
(§10) efflux is not expected to play a role. As such, the addition of inhibitor in this case is purely to evaluate if the P app changes when it is present.

P-gp (MDR1) [2] = experiment: as above; format: in vitro ADME, canine; settings: dog, pH 7.4, one replicate
Source text: as §1, §2, §3, §4, §5, §6, §7, §8, §9, §10

[3] = Calculation of neutral fraction (fn)
Caco-2 cells = experiment: Model fits of pH-gradient Caco-2 data of Neuhoff et al. (2003)
Source text: Error bars represent standard deviation.
Fit Parameters A: Neutral-Neutral B: Ionic-Ionic C: Neutral-Ionic […]
as §2, §3, §4
compounds. In order to ensure paracellular dominance, 2 µM elacridar was used to inhibit potential P-gp facilitated efflux, and the transport buffer was set to a pH that would severely restrict the neutral

in vitro = settings: dog
P-gp (MDR1) [4] = experiment: in vitro; settings: dog
MDCK-MDR1 cells [5] = settings: pH 7.4 iso-method, cited from earlier work; for Papp, inhibitor: with inhibitor; for Papp, B⟶A: without inhibitor
MDCK-MDR1 cells [6] = experiment: Comparison of Papp,B-A with and without inhibitor in MDCK-MDR1 cells (own and literature data); settings: pH 7.4 iso-method
P-gp (MDR1) [7] = experiment: as above; settings: dog, MDCK-MDR1, pH 7.4, with P-gp inhibitor (elacridar 2 µM in this study's P0 assays), Papp, inhibitor, This study; with inhibitor; pH 7.4 iso-method
[8] = Neutral-Neutral assumption, gradient pH method, basolateral pH 7.4, fit of Neuhoff et al. 2003 data
[9] = ref Troutman and Thakker (2003)

Structure (SMILES): NS(=O)(=O)c1cc2c(cc1Cl)N=CNS2(=O)=O [Chlorothiazide]
- recovery ([1]; MDCK-MDR1, pH 7.4, A⟶B, no inhibitor, pH 7.4): 125%
- recovery ([1]; MDCK-MDR1, pH 7.4, B⟶A, no inhibitor, pH 7.4): 104%
- recovery ([1]; MDCK-MDR1, pH 7.4, with cyclosporin A 10 µM, A⟶B + cyclosporin-A, pH 7.4): 108%
- recovery ([1]; MDCK-MDR1, pH 7.4, with elacridar 2 µM, A⟶B + elacridar, pH 7.4): 100%
- recovery ([1]; MDCK-MDR1, pH 7.4, with verapamil 100 µM, A⟶B + verapamil, pH 7.4): 96%
- recovery ([1]; MDCK-MDR1, pH 9, with elacridar 2 µM, + 2 µM elacridar, pH 9, n = 3 (Table S13)): 105%
- Papp ([1]; MDCK-MDR1, with elacridar 2 µM, + 2 µM elacridar, pH 9, three replicates (n = 3) (Table S13)): 1.7 ± 0.7 ×10⁻⁶ cm/s
- Papp (P-gp (MDR1) [2]; MDCK-MDR1, with cyclosporin A 10 µM, A → B + cyclosporin-A (10 μM)): 0.7 ×10⁻⁶ cm/s
- Papp (P-gp (MDR1) [2]; MDCK-MDR1, with elacridar 2 µM, A → B + elacridar (2 μM)): 0.9 ×10⁻⁶ cm/s
- Papp (P-gp (MDR1) [2]; MDCK-MDR1, with verapamil 100 µM, A → B + verapamil (100 μM)): 1.4 ± 0.1 ×10⁻⁶ cm/s
- Papp (P-gp (MDR1) [2]; MDCK-MDR1, A → B, no inhibitor): 0.2 ×10⁻⁶ cm/s
- fn ([3]; neutral fraction at pH 7.4): 16.5%
- fn ([3]; neutral fraction at pH 9): 0.8%

Structure (SMILES): C[C@H]1O[C@@H](O[C@H]2[C@@H](O)C[C@H](O[C@H]3[C@@H](O)C[C@H](O[C@H]4CC[C@@]5(C)[C@H](CC[C@@H]6[C@@H]5C[C@@H](O)[C@]5(C)[C@@H](C7=CC(=O)OC7)CC[C@]65O)C4)O[C@@H]3C)O[C@@H]2C)C[C@H](O)[C@@H]1O [Digoxin]
- Pb,app active (fitted) (Caco-2 cells; [8]): 51.6 ×10⁻⁶ cm/s
- Ppara (fitted) (Caco-2 cells; [8]): 5.22 ×10⁻⁶ cm/s
- P0 (Caco-2 cells; human, Caco-2): 2.69-06 cm/s
- Ppgp,app active (fitted) (Caco-2 cells; human, Caco-2, pH 7.4): 63.9 ×10⁻⁶ cm/s
- Pb active in Caco-2 fit compared with MDCK results (iso-pH method) (Caco-2 cells; neutral-neutral fit): one order of magnitude higher
- logPapp, A⟶B (MDCK-II-MDR1 cells; pH 5, iso-pH method): -6.27 P in cm/s
- logPapp, B⟶A (MDCK-II-MDR1 cells; pH 5, iso-pH method): -5.21 P in cm/s
- logPapp, A⟶B (MDCK-II-MDR1 cells; pH 6, iso-pH method): -6.29 P in cm/s
- logPapp, B⟶A (MDCK-II-MDR1 cells; pH 6, iso-pH method): -4.79 P in cm/s
- logPapp, A⟶B (MDCK-II-MDR1 cells; pH 7.4, iso-pH method): -6.23 P in cm/s
- logPapp, B⟶A (MDCK-II-MDR1 cells; pH 7.4, iso-pH method): -4.75 P in cm/s
- logPapp, A⟶B (MDCK-II-MDR1 cells; pH 8, iso-pH method): -6.14 P in cm/s
- logPapp, B⟶A (MDCK-II-MDR1 cells; pH 8, iso-pH method): -4.79 P in cm/s
- logPapp, A⟶B (MDCK-II-MDR1 cells; pH 9, iso-pH method): -5.72 P in cm/s
- logPapp, B⟶A (MDCK-II-MDR1 cells; pH 9, iso-pH method): -5.12 P in cm/s
- recovery (in vitro; MDCK-MDR1, pH 5): 71 to 116%
- recovery (in vitro; MDCK-MDR1, pH 6): 74 to 88%
- recovery (in vitro; MDCK-MDR1, pH 7.4): 73 to 83%
- recovery (in vitro; MDCK-MDR1, pH 8): 73 to 76%
- recovery (in vitro; MDCK-MDR1, pH 9): 75 to 82%
- Papp (P-gp (MDR1) [4]; MDCK-MDR1, pH 5): 0.53 ± 0.15 ×10⁻⁶ cm/s
- Papp B→A (P-gp (MDR1) [4]; MDCK-MDR1, pH 5): 6.12 ± 1.9 ×10⁻⁶ cm/s
- Papp (P-gp (MDR1) [4]; MDCK-MDR1, pH 6): 0.51 ± 0.12 ×10⁻⁶ cm/s
- Papp B→A (P-gp (MDR1) [4]; MDCK-MDR1, pH 6): 16.3 ± 0.8 ×10⁻⁶ cm/s
- Papp (P-gp (MDR1) [4]; MDCK-MDR1, pH 7.4): 0.59 ± 0.11 ×10⁻⁶ cm/s
- Papp B→A (P-gp (MDR1) [4]; MDCK-MDR1, pH 7.4): 17.8 ± 2.8 ×10⁻⁶ cm/s
- Papp (P-gp (MDR1) [4]; MDCK-MDR1, pH 8): 0.72 ± 0.13 ×10⁻⁶ cm/s
- Papp B→A (P-gp (MDR1) [4]; MDCK-MDR1, pH 8): 16.3 ± 2 ×10⁻⁶ cm/s
- Papp (P-gp (MDR1) [4]; MDCK-MDR1, pH 9): 1.9 ± 0.32 ×10⁻⁶ cm/s
- Papp B→A (P-gp (MDR1) [4]; MDCK-MDR1, pH 9): 7.63 ± 1.73 ×10⁻⁶ cm/s
- Papp, inhibitor (MDCK-MDR1 cells [5]; ref Chang et al. (2006)): 2.04 ×10⁻⁶ cm/s
- Papp, inhibitor (MDCK-MDR1 cells [5]; ref Taub et al. (2005)): 1.39 ×10⁻⁶ cm/s
- Papp, inhibitor (MDCK-MDR1 cells [5]; [9]): 7.5 ×10⁻⁶ cm/s
- Papp, inhibitor (MDCK-MDR1 cells [5]; ref Wang et al. (2005)): 1 ×10⁻⁶ cm/s
- Papp, B⟶A (MDCK-MDR1 cells [5]; ref Chang et al. (2006)): 15.2 ×10⁻⁶ cm/s
- Papp, B⟶A (MDCK-MDR1 cells [5]; ref Taub et al. (2005)): 8.15 ×10⁻⁶ cm/s
- Papp, B⟶A (MDCK-MDR1 cells [5]; [9]): 35.7 ×10⁻⁶ cm/s
- Papp, B⟶A (MDCK-MDR1 cells [5]; ref Wang et al. (2005)): 9.75 ×10⁻⁶ cm/s
- fn ([3]; neutral fraction at pH 7.4): 100%
- Factor difference (MDCK-MDR1 cells [6]; This study, Papp,B⟶A vs Papp with inhibitor): 7
- Factor difference (MDCK-MDR1 cells [6]; calculated from literature Papp,B⟶A and Papp with inhibitor): 10 and 6 and 5 and 7
- Papp (P-gp (MDR1) [7]): 2.53 ×10⁻⁶ cm/s
